According to patent US10457709B2, “Antimicrobial peptides, their variants and uses” (priority 2015, dated 2019):
Like-named read-outs stand apart in the source and are kept apart here. Square brackets hold non-standard residues; d marks the D form. Peptide text beside a SMILES is read from it.

Key:
[1] = system: C. quillermondiae clinical strains; assay: MIC, clinical yeast strains; format: cell-based, Candida quillermondiae; parameters: unit: μg/ml; conditions: C. quillermondiae clinical yeast strain 1
Method in brief: (§1)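 Clinical isolates tested by broth microdilution at 5.0×10^5 cfu/ml with peptides at 0.125–128 μg/ml, incubated 20–24 h at 37° C. Bacteria were grown in Mueller Hinton broth and yeasts in potato dextrose broth. MIC is the lowest concentration showing no visible growth.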

[2] = system: Escherichia coli clinical strains; format: cell-based; conditions: microdilution, Muller Hinton broth-cation adjusted, 0.02% BSA, 0.2% acetic acid
Method in brief: as §1

[3] = system: Klebsiella pneumoniae clinical strains; format: cell-based; conditions: microdilution, Muller Hinton broth-cation adjusted, 0.02% BSA, 0.2% acetic acid
Method in brief: as §1

[4] = system: Pseudomonas aeruginosa clinical strains; format: cell-based; conditions: microdilution, Muller Hinton broth-cation adjusted, 0.02% BSA, 0.2% acetic acid
Method in brief: as §1

[5] = system: Candida albicans clinical strains; assay: MIC, clinical yeast strains; format: cell-based; parameters: unit: μg/ml
Method in brief: as §1

[6] = system: Serratia marcescens clinical strains; format: cell-based; parameters: Minimum inhibitory concentration: unit: μg/ml; conditions: microdilution, Muller Hinton broth-cation adjusted, 0.02% BSA, 0.2% acetic acid
Method in brief: as §1

[7] = system: Streptococcus pneumoniae clinical strains; format: cell-based; parameters: Minimum inhibitory concentration: unit: μg/ml; conditions: microdilution, Muller Hinton broth-cation adjusted, 0.02% BSA, 0.2% acetic acid
Method in brief: as §1

[8] = system: Staphylococcus aureus clinical strains; format: cell-based; parameters: Minimum inhibitory concentration: unit: μg/ml; conditions: microdilution, Muller Hinton broth-cation adjusted, 0.02% BSA, 0.2% acetic acid
Method in brief: as §1

[9] = system: Proteus mirabilis clinical strains; format: cell-based; parameters: Minimum inhibitory concentration: unit: μg/ml; conditions: microdilution, Muller Hinton broth-cation adjusted, 0.02% BSA, 0.2% acetic acid
Method in brief: as §1

[10] = system: Enterobacter cloacae clinical strains; format: cell-based; parameters: Minimum inhibitory concentration: unit: μg/ml; conditions: microdilution, Muller Hinton broth-cation adjusted, 0.02% BSA, 0.2% acetic acid
Method in brief: as §1

[11] = system: C. glabrata clinical strains; assay: MIC, clinical yeast strains; format: cell-based, Candida glabrata; parameters: unit: µg/ml
Method in brief: as §1

[12] = system: C. parapsilosis clinical strains; assay: MIC, clinical yeast strains; format: cell-based, Candida parapsilosis; parameters: unit: µg/ml
Method in brief: as §1

[13] = Escherichia coli clinical strain 1
[14] = Escherichia coli clinical strain 2
[15] = Escherichia coli clinical strain 3
[16] = Escherichia coli clinical strain 4
[17] = Escherichia coli clinical strain 5
[18] = Klebsiella pneumoniae clinical strain 1
[19] = Klebsiella pneumoniae clinical strain 2
[20] = Klebsiella pneumoniae clinical strain 3
[21] = Klebsiella pneumoniae clinical strain 4
[22] = Klebsiella pneumoniae clinical strain 5
[23] = Pseudomonas aeruginosa clinical strain 1
[24] = Pseudomonas aeruginosa clinical strain 2
[25] = Pseudomonas aeruginosa clinical strain 3
[26] = Pseudomonas aeruginosa clinical strain 4
[27] = Pseudomonas aeruginosa clinical strain 5
[28] = Candida albicans clinical yeast strain 1
[29] = Candida albicans clinical yeast strain 2
[30] = Candida albicans clinical yeast strain 3
[31] = Candida albicans clinical yeast strain 4
[32] = Candida albicans clinical yeast strain 5
[33] = Serratia marcescens clinical strain 1
[34] = Serratia marcescens clinical strain 2
[35] = Serratia marcescens clinical strain 3
[36] = Serratia marcescens clinical strain 4
[37] = Serratia marcescens clinical strain 5
[38] = Streptococcus pneumoniae clinical strain 1
[39] = Streptococcus pneumoniae clinical strain 2
[40] = Streptococcus pneumoniae clinical strain 3
[41] = Streptococcus pneumoniae clinical strain 4
[42] = Streptococcus pneumoniae clinical strain 5
[43] = Staphylococcus aureus clinical strain 1
[44] = Staphylococcus aureus clinical strain 2
[45] = Staphylococcus aureus clinical strain 3
[46] = Staphylococcus aureus clinical strain 4
[47] = Staphylococcus aureus clinical strain 5
[48] = Proteus mirabilis clinical strain 1
[49] = Proteus mirabilis clinical strain 2
[50] = Proteus mirabilis clinical strain 3
[51] = Proteus mirabilis clinical strain 4
[52] = Proteus mirabilis clinical strain 5
[53] = Enterobacter cloacae clinical strain 1
[54] = Enterobacter cloacae clinical strain 2
[55] = Enterobacter cloacae clinical strain 3
[56] = Enterobacter cloacae clinical strain 4
[57] = Enterobacter cloacae clinical strain 5
[58] = C. glabrata clinical yeast strain 1
[59] = C. glabrata clinical yeast strain 2
[60] = C. glabrata clinical yeast strain 3
[61] = C. glabrata clinical yeast strain 4
[62] = C. parapsilosis clinical yeast strain 1
[63] = C. parapsilosis clinical yeast strain 2
[64] = C. parapsilosis clinical yeast strain 3
[65] = C. parapsilosis clinical yeast strain 4

CC(C)C[C@@H](NC(=O)[C@@H](CCCCN)NC(=O)[C@@H](CCCCN)NC(=O)[C@@H](Cc1ccccc1)NC(=O)[C@@H](CC(C)C)NC(=O)[C@@H](Cc1c[nH]c2ccccc12)NC(=O)[C@@H](CCCNC(=N)N)NC(=O)[C@@H](Cc1c[nH]c2ccccc12)NC(=O)[C@@H](CCCCN)NC(=O)[C@@H](CCCNC(=N)N)NC(=O)[C@H](N)CCCCN)C(=O)O [Chain310D] (H-[dK][dR][dK][dW][dR][dW][dL][dF][dK][dK][dL]-OH)
Minimum inhibitory concentration [1]: 8
Minimum inhibitory concentration [2, 13]: 4
Minimum inhibitory concentration [2, 14]: 32
Minimum inhibitory concentration [2, 15]: 16
Minimum inhibitory concentration [2, 16]: 16
Minimum inhibitory concentration [2, 17]: 16
Minimum inhibitory concentration [3, 18]: 64
Minimum inhibitory concentration [3, 19]: 64
Minimum inhibitory concentration [3, 20]: 128
Minimum inhibitory concentration [3, 21]: 64
Minimum inhibitory concentration [3, 22]: 32
Minimum inhibitory concentration [4, 23]: 8
Minimum inhibitory concentration [4, 24]: 16
Minimum inhibitory concentration [4, 25]: 16
Minimum inhibitory concentration [4, 26]: 8
Minimum inhibitory concentration [4, 27]: 4
Minimum inhibitory concentration [5, 28]: 16
Minimum inhibitory concentration [5, 29]: 16
Minimum inhibitory concentration [5, 30]: 16
Minimum inhibitory concentration [5, 31]: 16
Minimum inhibitory concentration [5, 32]: 16
Minimum inhibitory concentration [6, 33]: >128
Minimum inhibitory concentration [6, 34]: >128
Minimum inhibitory concentration [6, 35]: >128
Minimum inhibitory concentration [6, 36]: >128
Minimum inhibitory concentration [6, 37]: >128
Minimum inhibitory concentration [7, 38]: 128
Minimum inhibitory concentration [7, 39]: 128
Minimum inhibitory concentration [7, 40]: 128
Minimum inhibitory concentration [7, 41]: 128
Minimum inhibitory concentration [7, 42]: 64
Minimum inhibitory concentration [8, 43]: 8
Minimum inhibitory concentration [8, 44]: 16
Minimum inhibitory concentration [8, 45]: 8
Minimum inhibitory concentration [8, 46]: 8
Minimum inhibitory concentration [8, 47]: 4
Minimum inhibitory concentration [9, 48]: >128
Minimum inhibitory concentration [9, 49]: >128
Minimum inhibitory concentration [9, 50]: >128
Minimum inhibitory concentration [9, 51]: >128
Minimum inhibitory concentration [9, 52]: >128
Minimum inhibitory concentration [10, 53]: 128
Minimum inhibitory concentration [10, 54]: 64
Minimum inhibitory concentration [10, 55]: 16
Minimum inhibitory concentration [10, 56]: 8
Minimum inhibitory concentration [10, 57]: 16
Minimum inhibitory concentration [11, 58]: 16
Minimum inhibitory concentration [11, 59]: 16
Minimum inhibitory concentration [11, 60]: 128
Minimum inhibitory concentration [11, 61]: 128
Minimum inhibitory concentration [12, 62]: 64
Minimum inhibitory concentration [12, 63]: 64
Minimum inhibitory concentration [12, 64]: 64
Minimum inhibitory concentration [12, 65]: 16

CC(C)C[C@@H](NC(=O)[C@H](N)CCCNC(=N)N)C(=O)N[C@H](CCCCN)C(=O)N[C@H](Cc1c[nH]c2ccccc12)C(=O)N[C@H](Cc1ccccc1)C(=O)N[C@H](Cc1c[nH]c2ccccc12)C(=O)N[C@H](CC(C)C)C(=O)N[C@H](Cc1ccccc1)C(=O)N[C@H](CCCNC(=N)N)C(=O)N[C@H](CCCCN)C(=O)N[C@H](CCCNC(=N)N)C(=O)O [Chain307D] (H-[dR][dL][dK][dW][dF][dW][dL][dF][dR][dK][dR]-OH)
Minimum inhibitory concentration [1]: 4
Minimum inhibitory concentration [2, 13]: 4
Minimum inhibitory concentration [2, 14]: 4
Minimum inhibitory concentration [2, 15]: 4
Minimum inhibitory concentration [2, 16]: 2
Minimum inhibitory concentration [2, 17]: 4
Minimum inhibitory concentration [3, 18]: 8
Minimum inhibitory concentration [3, 19]: 8
Minimum inhibitory concentration [3, 20]: 16
Minimum inhibitory concentration [3, 21]: 16
Minimum inhibitory concentration [3, 22]: 4
Minimum inhibitory concentration [4, 23]: 16
Minimum inhibitory concentration [4, 24]: 16
Minimum inhibitory concentration [4, 25]: 16
Minimum inhibitory concentration [4, 26]: 8
Minimum inhibitory concentration [4, 27]: 8
Minimum inhibitory concentration [5, 28]: 16
Minimum inhibitory concentration [5, 29]: 16
Minimum inhibitory concentration [5, 30]: 16
Minimum inhibitory concentration [5, 31]: 16
Minimum inhibitory concentration [5, 32]: 16
Minimum inhibitory concentration [6, 33]: >128
Minimum inhibitory concentration [6, 34]: >128
Minimum inhibitory concentration [6, 35]: 128
Minimum inhibitory concentration [6, 36]: >128
Minimum inhibitory concentration [6, 37]: >128
Minimum inhibitory concentration [7, 38]: 4
Minimum inhibitory concentration [7, 39]: 4
Minimum inhibitory concentration [7, 40]: 4
Minimum inhibitory concentration [7, 41]: 2
Minimum inhibitory concentration [7, 42]: 2
Minimum inhibitory concentration [8, 43]: 2
Minimum inhibitory concentration [8, 44]: 2
Minimum inhibitory concentration [8, 45]: 2
Minimum inhibitory concentration [8, 46]: 2
Minimum inhibitory concentration [8, 47]: 2
Minimum inhibitory concentration [9, 48]: >128
Minimum inhibitory concentration [9, 49]: 128
Minimum inhibitory concentration [9, 50]: 128
Minimum inhibitory concentration [9, 51]: >128
Minimum inhibitory concentration [9, 52]: >128
Minimum inhibitory concentration [10, 53]: 4
Minimum inhibitory concentration [10, 54]: 8
Minimum inhibitory concentration [10, 55]: 4
Minimum inhibitory concentration [10, 56]: 4
Minimum inhibitory concentration [10, 57]: 4
Minimum inhibitory concentration [11, 58]: 8
Minimum inhibitory concentration [11, 59]: 16
Minimum inhibitory concentration [11, 60]: 8
Minimum inhibitory concentration [11, 61]: 16
Minimum inhibitory concentration [12, 62]: 16
Minimum inhibitory concentration [12, 63]: 8
Minimum inhibitory concentration [12, 64]: 8
Minimum inhibitory concentration [12, 65]: 8
